Laboratory results taken from a compilation of properties of binary mixtures (doi:10.1021/acs.iecr.6b02875).

Assay: xn = mol fraction of the nth substance listed
Details: 101 kPa; for electrical conductivity: 298.15 K

CCCOCCn1cc[n+](C)c1.O=S(=O)([N-]S(=O)(=O)C(F)(F)F)C(F)(F)F + O
x1 = 0.8308
Details | viscosity [mPa·s]
293 K | 48
303 K | 31.6
313 K | 21.9
323 K | 15.9
333 K | 12
343 K | 9.2
353 K | 7.3

Details | electrical conductivity [S/m]
x1 = 0.8308 | 0.404

CCOCC[n+]1ccn(C)c1.O=S(=O)([N-]S(=O)(=O)C(F)(F)F)C(F)(F)F + O
x1 = 0.8421
Details | viscosity [mPa·s]
293 K | 42.4
303 K | 27.8
313 K | 19.5
323 K | 14.2
333 K | 10.7
343 K | 8.3
353 K | 6.5

Details | electrical conductivity [S/m]
x1 = 0.8421 | 0.499

CCOCn1cc[n+](C)c1.O=S(=O)([N-]S(=O)(=O)C(F)(F)F)C(F)(F)F + O
x1 = 0.8413
Details | viscosity [mPa·s]
283 K | 81.6
293 K | 48.9
298.1 K | 38.8
303 K | 31.4
313 K | 21.6
323 K | 15.7
343 K | 9.1
353 K | 7.2

Details | electrical conductivity [S/m]
x1 = 0.8413 | 0.504

COCCCn1cc[n+](C)c1.O=S(=O)([N-]S(=O)(=O)C(F)(F)F)C(F)(F)F + O
x1 = 0.8318
Details | viscosity [mPa·s]
293 K | 49.6
298.1 K | 39.7
303 K | 32.1
313 K | 22.1
323 K | 15.9
333 K | 11.8
343 K | 9.1
353 K | 7.1

Details | electrical conductivity [S/m]
x1 = 0.8318 | 0.44

COCC[n+]1ccn(C)c1.O=S(=O)([N-]S(=O)(=O)C(F)(F)F)C(F)(F)F + O
x1 = 0.838
Details | viscosity [mPa·s]
293 K | 41.5
298.1 K | 33.3
303 K | 27.4
313 K | 19.4
323 K | 14.2
333 K | 10.7
343 K | 8.4
353 K | 6.7

COC[n+]1ccccc1.O=S(=O)([N-]S(=O)(=O)C(F)(F)F)C(F)(F)F + O
x1 = 0.8484
Details | viscosity [mPa·s]
283 K | 75.6
293 K | 46.3
313 K | 21.7
323 K | 15.8
343 K | 9.4
353 K | 7.5

COC[n+]1ccn(C)c1.O=S(=O)([N-]S(=O)(=O)C(F)(F)F)C(F)(F)F + O
x1 = 0.8281
Details | viscosity [mPa·s]
293 K | 48.3
298.1 K | 38.4
303 K | 31.1
313 K | 21.4
323 K | 15.4
333 K | 11.4
343 K | 8.8
353 K | 7

Details | electrical conductivity [S/m]
x1 = 0.8281 | 0.594
